# Assay results from publication PMC12220852, “An adamantane‐based ligand as a novel chemical tool for thermosensory TRPM8 channel therapeutic modulation” (The Febs Journal, 2025).
# Tested on: capsaicin‐induced excitability in murine nociceptors
# Test: Multielectrode array (MEA): capsaicin-induced firing in nociceptors
# Assay type: cell-based
# Conditions: 1 μM compound, 0.5 μM capsaicin, P2/P1
# Experimental: Additionally, we investigated the effect of compound 23 on capsaicin and AITC‐induced excitability in murine nociceptors. Employing an IC50 value of 1 μM for TRPV1 and 5 μM for TRPA1 of firing inhibition by compound 23 (Fig. 4), we interrogated its ability to modulate neuronal excitability. As for TRPM8, our experimental design involved a protocol of dual agonist pulses interspersed with a washing pulse to minimize agonist‐induced channel desensitization. Compound 23 was administered 1 min prior to and during the second agonist pulse.
# Primary cultures of neonatal dorsal root ganglia were used for multielectrode array (MEA) and patch‐clamp experiments following established methodologies previously described. Neonatal dorsal root ganglia (DRGs) were obtained from Wistar rats (3–5 days old) and were isolated and digested with 0.25% (w/v) collagenase (type IA) in DMEM GlutaMax with 1% (v/v) penicillin/streptomycin (P/S) solution for 1 h at 37 °C in a 5% CO2 Thermo Scientific incubator. Following digestion, DRGs were mechanically dissociated and passed through a 100 μm cell strainer to obtain single‐cell suspensions. Suspensions were washed with DMEM GlutaMax with 10% (v/v) fetal bovine serum (FBS) and 1% (v/v) penicillin/streptomycin (P/S). Cells were then seeded in microelectrode array chambers coated with poly‐L‐lysine (8.3 μg·mL^−1) and laminin (5 μg·mL^−1). […]
smiles,measurement,value
"O=C(COC(=O)c1ccccc1-c1ccccc1)NC12CC3CC(CC(C3)C1)C2 [Compound 23, 2‐((3S,5S,7S)‐adamantan‐1‐ylamino)‐2‐oxoethyl [1,1′‐biphenyl]‐2‐carboxylate]",attenuation of capsaicin‐induced firing,30%
